Reference: patent publication US20180105492A1, “COMPOUNDS DERIVED FROM 3-ALKYLAMINE-1H-INDOLYL ACRYLATE AND THEIR USE IN THE TREATMENT OF NEURODEGENERATIVE DISEASES” (FUNDACION PARA LA INVESTIGACION BIOMEDICA DEL HOSPITAL …, priority 2014, published 2018)

System: SH-SY5Y cells
Assay: Neuroprotection against rotenone/oligomycin A, pre-incubation model, MTT
Format: cell-based
Details: Homo sapiens, compound 1 μM pre-incubation 24 h, then Rot/Olig (30/10 μM); for viability at 1 µM: read-out: % Survival
Description: SH-SY5Y cells [ECACC 94030304], in 5 to 16 passage after defreezing were maintained in Eagle media modified by Dulbecco (DMEM) containing 15 non-essential amino acids and supplemented with 10% fetal bovine serum, 1 mM glutamine, 50 units/mL penicillin/streptomycin (obtained from GIBCO, Madrid, Spain). Cells were seeded in flasks containing supplemented media and were maintained in an incubator at 37° C. and 5% CO2. 1:4 passes were performed twice per week. For the experiments, cells were seeded in 24 well-plates at a density of 2×10^5 cells/well, or in 96 well-plates at a density of 8×10^4 cells/well. For cytotoxicity experiments, cells were treated with the compounds before confluence with DMEM media supplemented with fetal bovine serum 1%.
In order to assess cellular viability, we measured the metabolic reduction of 3-(4,5-Dimethylthiazol-2-yl)-2,5 diphenyltetrazolium bromide (MTT). MTT is an indirect assay to measure cellular viability. It is a colorimetric method based on the reduction of 3-(4,5-Dimethylthiazol-2-yl)-2,5 diphenyltetrazolium. This process is performed by the mitochondrial enzyme succinate-dehydrogenase present in metabolic active cells. Thus, the water-soluble yellow MTT (tetrazolium salt) is transformed into a insoluble purple compound (formazan). Quantity of living cells is directly proportional to the quantity of formazan (Mosmann, 1983, J Immunol Methods, 65: 55-63). […] Therefore, with this assay we can measure cellular surviving and proliferation and also, we can determine the cytotoxicity of potential neuroprotective compounds. In order to assess cellular viability in SH-SY5Y cell line, we added 30 μl/well of MTT (5 mg/mL) and after 2 h, medium was carefully removed to avoid losing the formazan and was diluted in 300 μL of DMSO. Afterwards, samples were transferred to a 96 well-plate and the absorbance was measured at 570 nm using a absorbance/fluorescence reader FluoStar optima®. Every MTT assay was performed in triplicates. Absorbance values obtained with the toxic alone were subtracted to the absorbance values obtained in basal conditions (without treatment). That result was considered as the 100% of cell death and the values obtained with the compounds in the presence of the toxic stimulus were normalized as percentages of that value. For determining the surviving percentage, those percentages of cell death were subtracted to 100.
Neuroprotection elicited by the compounds of the invention 1-16: The activation of Nrf2-ARE pathway by different compounds exerts neuroprotective effects against toxic models based on oxidative stress via the expression of cytoprotective genes. […] We evaluated the neuroprotective potential of the compounds using the human neuroblastoma cell line using the following cytotoxicity models: 1) oxidative stress induced by rotenone+oligomycin, both blockers of the electron transport chain as previously described (Halliwell, 1992, J Neurochem, 59: 1609-23, Newhouse y col., 2004, Toxicol Sci, 79: 137-46), and 2) cytotoxicity induced by the electrophilic compound Menadione. This compound produces oxidative stress after being metabolized by microsomal enzymes in the cell which produces hydroxyl radical and oxygen reactive species. As a consequence, there is a depolarization of mitochondrial membrane generating a release of apoptotic factors such as cytochrome c, and activating the caspase cascade (Loor y col., 2010, Free Radic Biol Med, 49: 1925-36, Chuang y col., 2002, Cancer Res, 62: 6246-54). Caspase 3 activation can produce the lysis of proteins and induce DNA fragmentation, leading to cell death (Gerasimenko y col., 2002, J Cell Sci, 115: 485-97).
For this study we propose a protocol in which the cells are pre-incubated with each of the derivatives at 1 μM for 24 h. After the pre-incubation period, the medium was removed and replaced by culture medium with the rotenone/oligomycin-A (30 μM and 10 μM, respectively) toxic mixture. […]

CC(=O)NCCc1c[nH]c2ccc(OC(=O)/C=C/c3ccc(O)cc3)cc12 [Compound 7, 3-(2-acetamidoethyl)-1H-indol-5-yl (E)-3-(4-hydroxyphenyl)acrylate]
percent protection against toxin-induced cell death at 1 µM: 32.5%
viability at 1 µM: 71.5 ± 4.92%

CC(=O)NCCc1c[nH]c2ccc(OC(=O)/C=C/c3ccc(Br)cc3)cc12 [Compound 10, 3-(2-acetamidoethyl)-1H-indol-5-yl (E)-3-(4-bromophenyl)acrylate]
percent protection against toxin-induced cell death at 1 µM: 30.2%
viability at 1 µM: 71.1 ± 2.61%

CC(=O)NCCc1c[nH]c2ccc(OC(=O)/C=C/c3ccc(C(F)(F)F)cc3)cc12 [Compound 15, 3-(2-acetamidoethyl)-1H-indol-5-yl (E)-3-(4-(trifluoromethyl)phenyl)acrylate]
percent protection against toxin-induced cell death at 1 µM: 37.5%
viability at 1 µM: 73.4 ± 3.31%

COc1cccc(/C=C/C(=O)Oc2ccc3[nH]cc(CCNC(C)=O)c3c2)c1 [Compound 5, 3-(2-acetamidoethyl)-1H-indol-5-yl (E)-3-(3-methoxyphenyl)acrylate]
percent protection against toxin-induced cell death at 1 µM: 27.1%
viability at 1 µM: 70.2 ± 2.42%

CC(=O)NCCc1c[nH]c2ccc(OC(=O)/C=C/c3ccc(C)cc3)cc12 [Compound 3, 3-(2-acetamidoethyl)-1H-indol-5-yl (E)-3-(4-methylphenyl)acrylate]
percent protection against toxin-induced cell death at 1 µM: 20.5%
viability at 1 µM: 67 ± 3.21%

CC(=O)NCCc1c[nH]c2ccc(OC(=O)/C=C/c3cccc(C(F)(F)F)c3)cc12 [Compound 14, 3-(2-acetamidoethyl)-1H-indol-5-yl (E)-3-(3-(trifluoromethyl)phenyl)acrylate]
percent protection against toxin-induced cell death at 1 µM: 34.9%
viability at 1 µM: 72.5 ± 2.92%

CC(=O)NCCc1c[nH]c2ccc(OC(=O)/C=C/c3ccc([N+](=O)[O-])cc3)cc12 [Compound 16, 3-(2-acetamidoethyl)-1H-indol-5-yl (E)-3-(4-nitrophenyl)acrylate]
percent protection against toxin-induced cell death at 1 µM: 23%
viability at 1 µM: 68.5 ± 2.88%

CC(=O)NCCc1c[nH]c2ccc(OC(=O)/C=C/c3ccc(Cl)c(Cl)c3)cc12 [Compound 12, 3-(2-acetamidoethyl)-1H-indol-5-yl (E)-3-(3,4-dichlorophenyl)acrylate]
percent protection against toxin-induced cell death at 1 µM: 25.3%
viability at 1 µM: 70.1 ± 4.35%

COc1cc(/C=C/C(=O)Oc2ccc3[nH]cc(CCNC(C)=O)c3c2)ccc1O [Compound 8, 3-(2-acetamidoethyl)-1H-indol-5-yl (E)-3-(4-hydroxy-3-methoxyphenyl)acrylate]
percent protection against toxin-induced cell death at 1 µM: 37%
viability at 1 µM: 74 ± 3.13%

COc1ccc2[nH]cc(CCNC(C)=O)c2c1 [Melatonin, reference compound]
percent protection against toxin-induced cell death at 1 µM: 31.6%
viability at 1 µM: 71.8 ± 2.81%

CC(=O)NCCc1c[nH]c2ccc(OC(=O)/C=C/c3ccccc3C(F)(F)F)cc12 [Compound 13, 3-(2-acetamidoethyl)-1H-indol-5-yl (E)-3-(2-(trifluoromethyl)phenyl)acrylate]
percent protection against toxin-induced cell death at 1 µM: 22.1%
viability at 1 µM: 67 ± 3.01%

COc1ccccc1/C=C/C(=O)Oc1ccc2[nH]cc(CCNC(C)=O)c2c1 [Compound 4, 3-(2-acetamidoethyl)-1H-indol-5-yl (E)-3-(2-methoxyphenyl)acrylate]
percent protection against toxin-induced cell death at 1 µM: 19%
viability at 1 µM: 67.1 ± 2.61%

C/C=C/C(=O)Oc1ccc2[nH]cc(CCNC(C)=O)c2c1 [Compound 1, 3-(2-acetamidoethyl)-1H-indol-5-yl (E)-2-butenoate]
percent protection against toxin-induced cell death at 1 µM: 28.5%
viability at 1 µM: 70.4 ± 4.03%

CC(=O)NCCc1c[nH]c2ccc(OC(=O)/C=C/c3ccc(Cl)cc3)cc12 [Compound 11, 3-(2-acetamidoethyl)-1H-indol-5-yl (E)-3-(4-chlorophenyl)acrylate]
percent protection against toxin-induced cell death at 1 µM: 33.5%
viability at 1 µM: 73.2 ± 3.12%

CC(=O)NCCc1c[nH]c2ccc(OC(=O)/C=C/c3ccccc3)cc12 [Compound 2, 3-(2-acetamidoethyl)-1H-indol-5-yl cinnamate]
percent protection against toxin-induced cell death at 1 µM: 34.7%
viability at 1 µM: 72.7 ± 3.59%

COc1ccc(/C=C/C(=O)Oc2ccc3[nH]cc(CCNC(C)=O)c3c2)cc1 [Compound 6, 3-(2-acetamidoethyl)-1H-indol-5-yl (E)-3-(4-methoxyphenyl)acrylate]
percent protection against toxin-induced cell death at 1 µM: 29.8%
viability at 1 µM: 70 ± 3.04%

CC(=O)NCCc1c[nH]c2ccc(OC(=O)/C=C/c3ccc(F)cc3)cc12 [Compound 9, 3-(2-acetamidoethyl)-1H-indol-5-yl (E)-3-(4-fluorophenyl)acrylate]
percent protection against toxin-induced cell death at 1 µM: 21.5%
viability at 1 µM: 67.4 ± 2.13%
